Reference: article PMC5066224, “A Novel Resveratrol Based Tubulin Inhibitor Induces Mitotic Arrest and Activates Apoptosis in Cancer Cells” (Scientific Reports, 2016)

What was measured:
A549 cells [1] = test: Immunofluorescence microscopy of spindle microtubule organisation; assay type: cell-based, human; settings: 24 h
Method: Immunofluorescence microscopy was performed as previously described. A549 cells were grown on coverslips coated with gelatin (0.1%). […] After 24 h of the treatment nonspecific antibody binding sites were blocked using FBS following which cells were incubated with antitubulin antibody (1:500) at RT. Coverslips were washed in PBS, incubated in biotinylated antimouse secondary antibody (1:500; RT for 1 h) followed by Streptavidin-FITC (1:200). Finally, cells were mounted with DABCO and images were captured using Zeiss Fluorescence microscope and analyzed using Axio vision software. Colchicine treated cells were used as a positive control.

[2] = Toxicity evaluation in normal mice (body weight, haematology, liver and kidney function); assay type: in vivo, BALB/c mice; settings: 9 doses
Method: A total number of 10 BALB/c mice were used for the study, of which 5 animals served as normal control while, remaining 5 were treated with SS28 (15 mg/kg). Body weight of each animal was monitored throughout the experiment and average body weight was calculated on 21st day of treatment. In order to evaluate the effect of SS28 on physiological functions, blood was collected (21st day) and analysed as described earlier. The blood […] was analyzed using Neubauer’s chamber, and mean values of total red blood cells (RBCs) and white blood cells (WBCs) were determined. Serum was separated and kidney and liver function tests were performed for each animal, to determine alkaline phosphatase (ALP), […] (ALT), creatinine and urea levels as described earlier. Values are presented as mean ± SEM for both the controls and SS28 administered mice.

CEM cells = test: Annexin V-FITC/PI double-staining assay; assay type: cell-based, Human; settings: 48 h; for cells in early apoptotic stage: Annexin positive; for cells in late apoptosis: Annexin/PI positive
Method: When cells undergo apoptosis, the integrity of the cell membrane is disrupted and phosphatidyl serine is exposed. Annexin V conjugated with FITC (apoptosis detection kit Santacruz, USA) has a selective affinity for phosphatidyl serine, based on which early and late apoptotic cells can be detected.
CEM cells (1 × 10^5 cells/ml) were treated with SS28 (5 and 10 μM) for 48 h. Cells were then harvested, washed with cold PBS and used for annexin-PI double-staining assay. Samples were resuspended in 1x binding buffer and incubated with Annexin V-FITC ([…]) and PI (0.05 mg/ml) and analyzed by flow cytometry (FACS calibur) using CellQuest pro software at an excitation with 488 nm laser and emission at 530 nm[55]. A minimum of 10,000 cells were acquired for each sample and illustrated as dot plot using Flowing software.

purified Tubulin = test: Circular dichroism of Tubulin with SS28; assay type: binding; settings: Tubulin 1 μM in PEM buffer, 200-260 nm, 4 °C
Method: Purified Tubulin (1 μM) was resuspended in PEM buffer (80 mM PIPES (pH 6.9), 2 mM MgCl2, 0.5 mM EGTA, 1.0 mM GTP and 5% glycerol) and CD spectrum was recorded at a wavelength of 200 to 260 nm (4 °C) on a JASCO J-810 spectropolarimeter. 3 cycles were acquired for each sample at a scan speed of 100 nm/sec. Increasing concentration of SS28 (500 pM, 1, 10, 100 and 1000 nM) was incubated with Tubulin (1 μM) in PEM buffer and the spectrum was recorded. Spectral measurements were taken for buffer alone and buffer containing DMSO were subtracted from experimental data. The molar ellipticity was calculated using Spectra Manager software and plotted as a function of wavelength.

[3] = test system: several cancer cell lines; test: Cytotoxicity in cancer cell lines ex vivo (summary); assay type: cell-based
Method: The effect of SS28 on viability of CEM, Reh, Nalm6, SUDHL8, Molt4, A549, HeLa 293T, mouse embryonic fibroblast (MEF) and PBMC was determined by trypan blue dye exclusion assay as described previously. Briefly, cells (0.75 × 10^5 cells/ml) were treated with increasing concentrations of SS28 (1, 5, 10 and 20, μM) for 48 and 72 h. DMSO treated cells were used as the vehicle control. Cells were harvested and subjected to trypan blue assay. Data from a minimum of three independent experiments is presented as a histogram with error bars.

[4] = test system: Tubulin polymerisation in CEM cells; test: Cell based microtubule assembly (Tubulin polymerisation) assay; design: species or system Human; settings: CEM, 2, 5 and 10 μM, 24 h, pellet fraction α-Tubulin immunoblot
Method: Separation of insoluble polymerized Tubulin from soluble Tubulin dimers was performed as described. In brief, CEM cells (1 × 10^6) were treated with 2, 5 and 10 μM of SS28 for 24 h. Cells were harvested and washed with PBS before adding polymerization lysate buffer containing 20 mM Tris-HCl (pH 6.8), 1 mM MgCl2, 2 mM EGTA, […], 1 mM phenylmethylsulfonyl fluoride, 1 mM orthovanadate and 0.5% NP-40. After centrifugation of the lysates at 15,000 × g for 10 min at 4 °C, the pellets were resuspended in SDS-PAGE loading buffer and dissolved by heating at 95 °C for 10 min. α-Tubulin was then immunoblotted for the pellet fraction containing polymerized microtubules and supernatants containing depolymerised microtubules were equalised and resolved on 8% SDS PAGE.

A549 cells [5] = test: Cell cycle phase distribution by flow cytometry; assay type: cell-based, human; settings: A549, 5 μM, 6 to 24 h
Method: Cell cycle analysis by flow cytometry was performed as previously described. Briefly, 75,000 cells/ml (A549) were seeded in 6 well plates and grown in serum free medium for 18 h. After synchronisation, the cells were treated with 5 μM of SS28 (6, 12, 18, 24 and 30 h) and cells were processed as described before. Similarly, CEM cells (75,000 cells/ml) were treated with SS28 (2 μM) and harvested (6, 12, 18, 24 and 30 h) and processed. Following fixation, cells were resuspended in PBS and stained with propidium iodide and evaluated in a flow cytometer (FACS Calibur, Becton Dickinson) using Cell Quest Pro software using excitation 488 nm laser and emission at 560/570 nm. A minimum of 10,000 cells were acquired per sample and histograms were analysed using WinMDI 2.8 software.

[6] = normal BALB/c mice, 15 mg/kg, 21st day, mean ± SEM

COc1cc(/C=C/c2ccc(C)cc2)cc(OC)c1OC [SS28, (E)-1,2,3-trimethoxy-5-(4-methylstyryl)benzene]
cells displaying abnormal spindle organisation (A549 cells [1]; A549, 5 μM): ~ 38%
Metaphase arrest (number of cells) (A549 cells [1]; A549, 5 μM, total number of cells 78): 30
Metaphase arrest (number of cells) (A549 cells [1]; A549, 10 μM, total number of cells 387): 123
body weight ([2]; normal BALB/c mice, 15 mg/kg oral): no significant difference
number of RBCs and WBCs versus control ([2]; normal BALB/c mice, 15 mg/kg, 21st day): no significant difference
RBC [2, 6]: 6.43 ± 1.32 10^6 cells/mm^3
WBC [2, 6]: 3.5 ± 0.99 10^3 cells/mm^3
ALP level versus control ([2]; serum, 15 mg/kg, 21st day): slightly higher
level of ALT versus control ([2]; serum, 15 mg/kg, 21st day): no significant difference
levels of creatinine and urea in the serum versus control ([2]; serum, 15 mg/kg, 21st day): no significant difference
cells in early apoptotic stage (CEM cells; 5 μM): 28.2%
cells in late apoptosis (CEM cells; 5 μM): 39.8%
cells in early apoptotic stage (CEM cells; 10 μM): 32.9%
cells in late apoptosis (CEM cells; 10 μM): 46.9%
necrosis (CEM cells; 5 and 10 μM): did not observe any cells undergoing necrosis
concentration from which a shift in the CD spectrum of Tubulin was seen (purified Tubulin): ≥ 500 pM
IC50 [3]: 3 to 5 µM
concentration from which Tubulin polymerisation was inhibited [4]: ≥ 2 µM
cell cycle distribution (A549 cells [5]): significant accumulation of cells at G2/M phase
